From US11098010B2 (priority 2017, dated 2021)
pEC50: −log10 of the molar value. Where a name gives a salt, the structure may show the parent alone.

What follows are compounds tested on HBV rcDNA in HepDE19 cells (assay: HepDE19 assay with bDNA quantitation of HBV rcDNA). Conditions: HepDE19 cells, inhibition of rcDNA formation, 7 day incubation, top concentration 25 μM; read-out: DE-19 bDNA EC50.
Type: cell-based, hepatitis B virus (HBV)

Row | Compound | pEC50
1 | O=C(N[C@H]1CCc2c(C(=O)Nc3ccc(F)c(Cl)c3)ccc(F)c21)OCc1nnco1 [Compound 231, O-(1,3,4-oxadiazol-2-yl)methyl, N-(S)-(4-((3-chloro-4-fluorophenyl)carbamoyl)-7-fluoro-2,3-dihydro-1H-inden-1-yl) carbamate] | 6.89
2 | O=C(Nc1ccc(F)c(Cl)c1)c1ccc(F)c2c1CCC21NC(=O)N(Cc2ccccn2)C1=O (centres unmarked) [Compound 260, N-(3-chloro-4-fluoro-phenyl)-7-fluoro-2,5-dioxo-1-(2-pyridylmethyl)spiro [imidazolidine-4,1′-indane]-4′-carboxamide] | 4.89
3 | COC(=O)NC1c2c(F)ccc(C(=O)Nc3ccc(F)c(F)c3)c2CC1OC (centres unmarked) [Compound 244, O-methyl, N-(4-((3,4-difluorophenyl)carbamoyl)-7-fluoro-2-methoxy-2,3-dihydro-1H-inden-1-yl) carbamate] | 5.70
4 | CN1C(=O)NC2(CCc3c(C(=O)Nc4ccc(F)c(Cl)c4)ccc(F)c32)C1=O (single isomer, unassigned) [Compound 261, N-(3-chloro-4-fluoro-phenyl)-7′-fluoro-1-methyl-2,5-dioxo-spiro [imidazolidine-4,1′-indane]-4′-carboxamide] | 5.57
5 | O=C(N[C@H]1CCc2c(C(=O)Nc3ccc(F)c(Cl)c3)ccc(F)c21)OCc1ncn(C2CCCCO2)n1 (stereo partly drawn) [Compound 248, O-(1-(tetrahydro-2H-pyran-2-yl)-1H-1,2,4-triazol-3-yl)methyl, N-((S)-4-((3-chloro-4-fluorophenyl)carbamoyl)-7-fluoro-2,3-dihydro-1H-inden-1-yl) carbamate] | 6.82
6 | COC(=O)NC1c2c(F)ccc(C(=O)Nc3ccc(F)c(Cl)c3)c2CC1(F)F (centres unmarked) [Compound 210, O-methyl, N-((4-((3-chloro-4-fluorophenyl)carbamoyl)-2,2,7-trifluoro-2,3-dihydro-1H-inden-1-yl) carbamate] | 4.82

Same assay, conditions: Hepatitis B virus, HepDE19, 168 h, HepDE19 cells, inhibition of rcDNA formation, 7 day incubation, top concentration 25 μM; read-out: DE-19 bDNA EC50

Row | Compound | pEC50
7 | O=C(N[C@H]1CCc2c(C(=O)Nc3ccc(F)c(Cl)c3)ccc(F)c21)OCCC(F)(F)F [Compound 70, O-3,3,3-Trifluoropropyl, N—(S)-(4-((3-chloro-4-fluorophenyl)carbamoyl)-7-fluoro-2,3-dihydro-1H-inden-1-yl) carbamate] | 6.54
8 | Cn1ccnc1COC(=O)N[C@H]1CCc2c(C(=O)Nc3ccc(F)c(Cl)c3)ccc(F)c21 [Compound 137, O-(1-Methyl-1H-imidazol-2-yl)methyl, N—(S)-(4-((3-chloro-4-fluorophenyl)carbamoyl)-7-fluoro-2,3-dihydro-1H-inden-1-yl) carbamate] | 7.00
9 | CNC(=O)NC1CC(C)(C)c2c(C(=O)Nc3ccc(F)c(Cl)c3)ccc(F)c21 (centres unmarked) [Compound 241, N-(3-chloro-4-fluorophenyl)-7-fluoro-3,3-dimethyl-1-(3-methylureido)-2,3-dihydro-1H-indene-4-carboxamide] | 4.62
10 | Cc1cc(NC(=O)c2ccc(F)c3c2OCC3NC(=O)OCc2ccccn2)ccc1F (centres unmarked) [Compound 205, O-Pyridin-2-ylmethyl, N-(4-fluoro-7-((4-fluoro-3-methylphenyl)carbamoyl)-2,3-dihydrobenzofuran-3-yl) carbamate] | 5.43
11 | Cn1ccc(C(=O)N[C@H]2CCc3c(C(=O)Nc4ccc(F)c(Cl)c4)ccc(F)c32)n1 [Compound 98, (S)—N-(4-((3-Chloro-4-fluorophenyl)carbamoyl)-7-fluoro-2,3-dihydro-1H-inden-1-yl)-1-methyl-1H-pyrazole-3-carboxamide] | 6.09

Same assay, conditions: Hepatitis B virus, HepDE19, 168 h, read-out: DE-19 bDNA EC50 (μM), HepDE19 cells, inhibition of rcDNA formation, 7 day incubation, top concentration 25 μM

Row | Compound | EC50 [µM]
12 | O=C(N[C@H]1CCc2c(C(=O)Nc3ccc(F)c(Cl)c3)ccc(F)c21)OCc1ncccn1 [Compound 79, O-Pyrimidin-2-ylmethyl, N—(S)-(4-((3-chloro-4-fluorophenyl)carbamoyl)-7-fluoro-2,3-dihydro-1H-inden-1-yl) carbamate] | 0.12
13 | C[C@H](OC(=O)N[C@H]1CCc2c(C(=O)Nc3ccc(F)c(Cl)c3)ccc(F)c21)c1ccccn1 [Compound 68, O—(S)-1-(Pyridin-2-yl)ethyl, N—((S)-4-((3-chloro-4-fluorophenyl)carbamoyl)-7-fluoro-2,3-dihydro-1H-inden-1-yl) carbamate] | 0.39
14 | Cc1nccnc1COC(=O)N[C@H]1CCc2c(C(=O)Nc3ccc(F)c(Cl)c3)ccc(F)c21 [Compound 173, O-(3-Methylpyrazin-2-yl)methyl, N—(S)-(4-((3-chloro-4-fluorophenyl)carbamoyl)-7-fluoro-2,3-dihydro-1H-inden-1-yl) carbamate] | 0.12
15 | O=C(Nc1ccc(F)c(Cl)c1)c1ccc(F)c2c1CC[C@@H]2NS(=O)(=O)CCc1ccccn1 [Compound 167, (S)—N-(3-Chloro-4-fluorophenyl)-7-fluoro-1-((2-(pyridin-2-yl)ethyl)sulfonamido)-2,3-dihydro-1H-indene-4-carboxamide Hydrochloride] | 0.29
16 | COc1ccc(Cn2ccc3cnc(N[C@H]4CCc5c(C(=O)Nc6ccc(F)c(Cl)c6)ccc(F)c54)nc32)cc1 [Compound 197, (S)—N-(3-Chloro-4-fluorophenyl)-7-fluoro-1-((7-(4-methoxybenzyl)-7H-pyrrolo[2,3-d]pyrimidin-2-yl)amino)-2,3-dihydro-1H-indene-4-carboxamide] | 1.2
17 | CN(C)c1cccc(COC(=O)N[C@H]2CCc3c(C(=O)Nc4ccc(F)c(Cl)c4)ccc(F)c32)n1 [Compound 48, O-(6-(Dimethylamino)pyridin-2-yl)methyl, N—(S)-(4-((3-chloro-4-fluorophenyl)carbamoyl)-7-fluoro-2,3-dihydro-1H-inden-1-yl) carbamate] | 0.16
18 | O=C(N[C@H]1CCc2c(C(=O)Nc3ccc(F)c(Cl)c3)ccc(F)c21)OCC(=O)N1CCCC1 [Compound 26, O-2-Oxo-2-(pyrrolidin-1-yl)ethyl, N—(S)-(4-((3-chloro-4-fluorophenyl)carbamoyl)-7-fluoro-2,3-dihydro-1H-inden-1-yl) carbamate] | 0.44
19 | O=C(N[C@H]1CCc2c(C(=O)Nc3ccc(F)c(Cl)c3)ccc(F)c21)OC[C@H]1CCCO1 [Compound 112, O—((R)-Tetrahydrofuran-2-yl)methyl, N—((S)-4-((3-chloro-4-fluorophenyl)carbamoyl)-7-fluoro-2,3-dihydro-1H-inden-1-yl) carbamate] | 0.21

Same assay, conditions: read-out: DE-19 bDNA EC50; HepDE19 cells, inhibition of rcDNA formation, 7 day incubation, top concentration 25 μM

Row | Compound | pEC50
20 | COC(=O)NC1COc2c(C(=O)Nc3ccc(F)c(Cl)c3)ccc(F)c21 (centres unmarked) [Compound 187, O-Methyl, N-(7-((3-chloro-4-fluorophenyl)carbamoyl)-4-fluoro-2,3-dihydrobenzofuran-3-yl) carbamate] | 4.64
21 | O=C(NC1COc2c(C(=O)Nc3ccc(F)c(Cl)c3)ccc(F)c21)OCc1ccccn1 (single isomer, unassigned) [Compound 192, O-Pyridin-2-ylmethyl, N-(7-((3-chloro-4-fluorophenyl)carbamoyl)-4-fluoro-2,3-dihydrobenzofuran-3-yl)carbamate] | 6.51
22 | COC(=O)NC1COc2c(C(=O)Nc3ccc(F)c(F)c3)cccc21 (centres unmarked) [Compound 6, O-Methyl, N-(7-((3,4-difluorophenyl)carbamoyl)-2,3-dihydrobenzofuran-3-yl) carbamate] | 5.89
23 | CNC(=O)NC1c2c(F)ccc(C(=O)Nc3ccc(F)c(Cl)c3)c2CC1(C)C (single isomer, unassigned) [Compound 249, N-(3-Chloro-4-fluorophenyl)-7-fluoro-2,2-dimethyl-1-(3-methylureido)-2,3-dihydro-1H-indene-4-carboxamide] | 4.89
